Assay results published in patent US20050042213A1, “Methods and pharmaceutical compositions for modulating heparanase activation and uses thereof” (InSight Biopharmaceuticals Ltd., priority 2003, published 2005).
Where a SMILES comes first, the peptide text is derived from it. Where no end group is shown, it is not given here. [ ]: non-standard residue; d: D form. The star is where a group is joined. AMC = Cc1cc(=O)oc2cc(N*)ccc12; Nle = CCCC[CH](N)C(=O)O; Cbz = O=C(OCc1ccccc1)*; NHOH = ON*

Test system: 293 cell extract
Test: Cleavage of Z-Pro-Lys-Lys-Glu-AMC (Peptide 1) by 293 cell extract and its inhibition by protease inhibitors
Format: biochemical, human
Set-up: % Inhibition: concentration or dose not given beside the values
Conditions: different pHs, pH range 4.5-7.5
Experimental: Following a 20 minutes incubation at 37° C., fluorescence released due to proteolytic activity was determined using a BMG POLARstar™ Galaxy fluorometer: excitation at 390 nm and emission at 460 nm.

Row | Compound | cleavage by 293 cell extract
1 | Z-Glu-His-Tyr-Gln-AMC (Cbz-EHYQ-{AMC}; SMILES Cc1cc(=O)oc2cc(NC(=O)[C@H](CCC(N)=O)NC(=O)[C@H](Cc3ccc(O)cc3)NC(=O)[C@H](Cc3c[nH]cn3)NC(=O)[C@H](CCC(=O)O)NC(=O)OCc3ccccc3)ccc12) [Peptide 2] | not cleaved

Same assay, conditions: inhibition of Z-Pro-Lys-Lys-Glu-AMC cleavage by 293 cell extract

Row | Compound | % Inhibition [%]
2 | CSCC[C@@H](C=O)NC(=O)[C@H](CC(C)C)NC(=O)[C@H](CC(C)C)NC(C)=O [Calpain inhibitor II, N-Acetyl-Leu-Leu-Met-CHO] (Ac-Leu-Leu-Met-aldehyde) | 98
3 | O=C[C@H](Cc1ccc(O)cc1)NC(=O)[C@H](Cc1ccccc1)NC(=O)OCc1ccccc1 [Cathepsin L inhibitor II] (Cbz-Phe-Tyr-aldehyde) | 97
4 | CC(C)C[C@H](NC(=O)[C@H]1O[C@@H]1C(=O)O)C(=O)NCCCCN=C(N)N [Compound E-64] | 93
5 | CC(=O)N[C@@H](CC(C)C)C(=O)N[C@@H](CC(C)C)C(=O)N[C@H](C=O)CCCNC(=N)N [Leupeptin] | 97
6 | O=C(O)[C@@H](Cc1ccccc1)NS(=O)(=O)c1ccc(-c2ccccc2)cc1 [MMP 2,9 inhibitor] | 0
7 | CC(C)CC(NC(=O)C1CCCN1C(=O)OCc1ccccc1)C(=O)NCC(=O)NO (stereo not drawn) [Z-Pro-Leu-Gly hydroxamate] (Cbz-Pro-Leu-Gly-{NHOH}; configuration not given here) | 0
8 | N=C(N)c1ccccc1 [benzamidine] | 13

Biological target: T1, pro-heparanase (H60) (Homo sapiens, UniProt Q9Y251, K307R)
T1 sequence (Q9Y251 36-543 K307R): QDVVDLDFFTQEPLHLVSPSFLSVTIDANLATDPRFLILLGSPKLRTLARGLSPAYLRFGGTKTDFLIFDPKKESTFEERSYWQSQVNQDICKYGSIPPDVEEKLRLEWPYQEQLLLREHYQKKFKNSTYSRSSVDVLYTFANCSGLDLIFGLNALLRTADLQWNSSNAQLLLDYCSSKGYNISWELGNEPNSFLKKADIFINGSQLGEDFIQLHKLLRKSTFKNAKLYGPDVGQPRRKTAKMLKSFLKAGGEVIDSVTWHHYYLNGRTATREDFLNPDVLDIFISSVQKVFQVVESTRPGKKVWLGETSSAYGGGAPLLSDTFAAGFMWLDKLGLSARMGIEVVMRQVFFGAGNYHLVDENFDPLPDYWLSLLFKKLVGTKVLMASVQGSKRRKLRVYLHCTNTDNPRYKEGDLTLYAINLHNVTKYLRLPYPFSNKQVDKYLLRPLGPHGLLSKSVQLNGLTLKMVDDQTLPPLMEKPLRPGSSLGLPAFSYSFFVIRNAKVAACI
Test: Pro-heparanase activation in a cell-based assay (293 cells, DMB assay)
Conditions: inhibition of pro-heparanase activation; Table 7, 5-(5-Phenyl-furan-2-ylmethylene)rhodanine analogs

Row | Compound | IC50 [µM]
9 | O=C(O)CCCCCN1C(=O)C(=Cc2ccc(-c3ccc(Cl)cc3)o2)SC1=S [Compound 2] | 0.52
10 | O=C(O)CCCN1C(=O)C(=Cc2ccc(-c3ccccc3[N+](=O)[O-])o2)SC1=S [Compound 3] | 14.3
11 | O=C(O)CCN1C(=O)C(=Cc2ccc(-c3ccccc3)o2)SC1=S [Compound 7] | 2.3
12 | O=C(O)CCN1C(=O)C(=Cc2ccc(-c3ccccc3Cl)o2)SC1=S [Compound 8] | 6
13 | O=C(O)CCN1C(=O)C(=Cc2ccc(-c3ccc(Cl)cc3Cl)o2)SC1=S [Compound 9] | 3
14 | O=C(O)CCN1C(=O)C(=Cc2ccc(-c3ccccc3[N+](=O)[O-])o2)SC1=S [Compound 10] | 30
15 | O=C(O)CCN1C(=O)C(=Cc2ccc(-c3ccc([N+](=O)[O-])cc3)o2)SC1=S [Compound 11] | 2.8
16 | O=C(O)CN1C(=O)C(=Cc2ccc(-c3ccccc3Cl)o2)SC1=S [Compound 14] | 32
17 | O=C(O)CN1C(=O)C(=Cc2ccc(-c3cccc(Cl)c3)o2)SC1=S [Compound 15] | 2
18 | O=C(O)CN1C(=O)C(=Cc2ccc(-c3ccc(Cl)cc3)o2)SC1=S [Compound 16] | 3.8
19 | O=C(O)CN1C(=O)C(=Cc2ccc(-c3cc(Cl)ccc3Cl)o2)SC1=S [Compound 17] | 20
20 | O=C(O)CN1C(=O)C(=Cc2ccc(-c3ccc(Cl)cc3Cl)o2)SC1=S [Compound 18] | 18
21 | O=C(O)CN1C(=O)C(=Cc2ccc(-c3ccc([N+](=O)[O-])cc3Cl)o2)SC1=S [Compound 20] | 29
22 | O=C(O)CN1C(=O)C(=Cc2ccc(-c3ccc(I)cc3)o2)SC1=S [Compound 22] | 27
23 | O=C(O)CN1C(=O)C(=Cc2ccc(-c3ccccc3[N+](=O)[O-])o2)SC1=S [Compound 24] | 37
24 | Cc1cc([N+](=O)[O-])ccc1-c1ccc(C=C2SC(=S)N(CC(=O)O)C2=O)o1 [Compound 25] | 21
25 | O=C(O)CN1C(=O)C(=Cc2ccc(-c3cccc(C(F)(F)F)c3)o2)SC1=S [Compound 26] | 7
26 | O=C(O)CN1C(=O)C(=Cc2ccc(-c3cccc(C(=O)O)c3)o2)SC1=S [Compound 27] | 46
27 | O=C1C(=Cc2ccc(-c3cccc([N+](=O)[O-])c3)o2)SC(=S)N1CCS(=O)(=O)O [Compound 35] | 41
28 | O=C1NC(=S)SC1=Cc1ccc(-c2ccc(Br)cc2)o1 [Compound 36] | 13
29 | Cc1ccc(-c2ccc(C=C3SC(S)=NC3=O)o2)cc1Cl [Compound 37] | 18
30 | O=C1C(=Cc2ccc(-c3ccc([N+](=O)[O-])cc3Cl)o2)SC(=S)N1c1ccccc1 [Compound 46] | 250
31 | O=C(O)c1cccc(-c2ccc(C=C3SC(=S)N(c4ccccc4)C3=O)o2)c1 [Compound 47] | 5
32 | O=C(O)c1ccc(-c2ccc(C=C3SC(=S)N(c4ccccc4)C3=O)o2)cc1 [Compound 48] | 0.95
33 | O=C(O)c1ccc(-c2ccc(C=C3SC(=S)N(c4cccc([N+](=O)[O-])c4)C3=O)o2)cc1 [Compound 56] | 13
34 | O=C1C(=Cc2ccc(-c3cccc(Cl)c3Cl)o2)SC(=S)N1c1ccccc1 [Compound 1013-0169] | 129

Same assay, conditions: inhibition of pro-heparanase activation; Table 8, 5-(Heteroaryl-2-ylmethylene)rhodanine analogs

Row | Compound | IC50 [µM]
35 | Cc1c(N2C(=O)C(=Cc3ccco3)SC2=S)c(=O)n(-c2ccccc2)n1C [Compound 76] | 52

Same assay, conditions: inhibition of pro-heparanase activation; Table 11, heparin-binding compounds

Row | Compound | IC50 [µM]
36 | C=CCn1c(=O)/c(=C\C=C2/Nc3c(sc(C)c3C)N2CC)s/c1=C\c1sc(-c2ccccc2)c(-c2ccccc2)[n+]1CC [Compound 113] | 2.61
37 | C=CCn1c(=O)/c(=C\C=C2\C=CN(CC)c3ccccc32)s/c1=C\c1sc(-c2ccccc2)c(-c2ccccc2)[n+]1CC [Compound 114] | 7
38 | CCN1C=C/C(=C/C=c2/s/c(=C\c3sc(-c4ccccc4)c(-c4ccccc4)[n+]3CC)n(CC)c2=O)c2ccccc21 [Compound 115] | 12
39 | CN(C)c1ccc(/C=C/C2=[N+](C)c3ccccc3C2(C)C)cc1 [Compound 116] | 3
40 | CN(C)c1ccc(/C=C/c2sc3ccc4ccccc4c3[n+]2C)cc1 [Compound 117] | 9
41 | CC[n+]1c(/C=C/Nc2ccccc2)sc2c3ccccc3sc21 [Compound 118] | 6
42 | CCN1/C(=C/C=C/c2sc3ccc(OC)cc3[n+]2CC)Sc2ccc3ccccc3c21 [Compound 119] | 1.74
43 | CCC(/C=C1\Sc2ccc3ccccc3c2N1CC)=C\c1sc2ccc(-c3ccccc3)cc2[n+]1CC [Compound 120] | 3.5
44 | CC[n+]1ccc(/C=C/C=C2\Sc3ccc4ccccc4c3N2C)c2ccccc21 [Compound 121] | 5.27
45 | CN1\C(=C/C=C/C=C/C=C/C2=[N+](C)c3ccccc3C2(C)C)C(C)(C)c2ccccc21 [Compound 122] | 16

Same assay, conditions: inhibition of pro-heparanase activation; Table 12, known inhibitors of cathepsin B activity

Row | Compound | IC50 [µM]
46 | CCCCC(C=O)NC(=O)C(CC(C)C)NC(=O)C(CC(C)C)NC(C)=O (stereo not drawn) [Compound 123, reference compound] (Ac-Leu-Leu-[Nle]-aldehyde; configuration not given here) | 7.4
47 | CSCCC(C=O)NC(=O)C(CC(C)C)NC(=O)C(CC(C)C)NC(C)=O (stereo not drawn) [Compound 124, reference compound] (Ac-Leu-Leu-Met-aldehyde; configuration not given here) | 10
48 | CCCNC(=O)C1OC1C(=O)NC(C(=O)N1CCCC1C(=O)OC)C(C)CC (stereo not shown) [Compound 125, reference compound] | 23
49 | CC(=O)NC(CC(C)C)C(=O)NC(CC(C)C)C(=O)NC(C=O)CCCNC(=N)N (stereo not shown) [Compound 126, reference compound] | 26
50 | CC(C)CC(NC(=O)C1OC1C(=O)O)C(=O)NCCCCNC(=N)N (stereo not shown) [Compound 127, reference compound] | 32

Test system: not listed separately
Test: Heparin binding of compounds (heparin sepharose CL-6B beads)
Conditions: compound at 5 uM
Experimental: Heparin binding—5 μM of the selected compound was prepared in a solution of PBS pH 7.2 with 0.05% Tween and 5% DMSO. […] Excess water was discarded by filtration using a Multiscreen vacuum manifold (Millipore, Cat No. MAVM 096 00). 200 μl of each compound tested was transferred to three wells of the filter plate—one empty well, one with sepharose CL-6B and one with heparin sepharose CL-6B. Plates were rotated for 2 hrs at 37° C. followed by filtration to a new 96 well clear plate, using a Multiscreen vacuum manifold. The absorbance spectrum of the filtrate in each well was determined using a VERSAmax plate reader (Molecular devices). Percent of heparin binding was calculated from the binding to heparin sepharose CL-6B as compared to the binding of the compound to the control sepharose CL-6B beads.

Row | Compound | Binding to heparin (5 uM) [%]
51 | C=CCn1c(=O)/c(=C\C=C2/Nc3c(sc(C)c3C)N2CC)s/c1=C\c1sc(-c2ccccc2)c(-c2ccccc2)[n+]1CC [Compound 113] | 73
52 | C=CCn1c(=O)/c(=C\C=C2\C=CN(CC)c3ccccc32)s/c1=C\c1sc(-c2ccccc2)c(-c2ccccc2)[n+]1CC [Compound 114] | 48
53 | CCN1C=C/C(=C/C=c2/s/c(=C\c3sc(-c4ccccc4)c(-c4ccccc4)[n+]3CC)n(CC)c2=O)c2ccccc21 [Compound 115] | 66
54 | CN(C)c1ccc(/C=C/C2=[N+](C)c3ccccc3C2(C)C)cc1 [Compound 116] | 71
55 | CN(C)c1ccc(/C=C/c2sc3ccc4ccccc4c3[n+]2C)cc1 [Compound 117] | 66
56 | CC[n+]1c(/C=C/Nc2ccccc2)sc2c3ccccc3sc21 [Compound 118] | 61
57 | CCN1/C(=C/C=C/c2sc3ccc(OC)cc3[n+]2CC)Sc2ccc3ccccc3c21 [Compound 119] | 51
58 | CCC(/C=C1\Sc2ccc3ccccc3c2N1CC)=C\c1sc2ccc(-c3ccccc3)cc2[n+]1CC [Compound 120] | 61
59 | CC[n+]1ccc(/C=C/C=C2\Sc3ccc4ccccc4c3N2C)c2ccccc21 [Compound 121] | 47
60 | CN1\C(=C/C=C/C=C/C=C/C2=[N+](C)c3ccccc3C2(C)C)C(C)(C)c2ccccc21 [Compound 122] | 65

Biological target: T2, Heparanase (Homo sapiens, UniProt Q9Y251, K307R)
T2 sequence (Q9Y251 158-543 K307R limits assumed): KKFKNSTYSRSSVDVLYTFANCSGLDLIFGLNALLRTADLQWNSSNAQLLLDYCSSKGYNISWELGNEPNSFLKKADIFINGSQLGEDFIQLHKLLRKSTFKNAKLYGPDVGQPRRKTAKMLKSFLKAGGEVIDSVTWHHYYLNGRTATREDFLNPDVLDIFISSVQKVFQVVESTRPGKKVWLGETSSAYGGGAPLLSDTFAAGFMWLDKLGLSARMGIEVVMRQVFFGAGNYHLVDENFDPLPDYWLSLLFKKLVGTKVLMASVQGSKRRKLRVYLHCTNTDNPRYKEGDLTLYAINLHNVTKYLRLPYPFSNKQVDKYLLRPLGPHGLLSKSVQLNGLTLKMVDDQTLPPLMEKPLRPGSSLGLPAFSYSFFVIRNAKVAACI
T2 sequence (Q9Y251 36-109 limits assumed): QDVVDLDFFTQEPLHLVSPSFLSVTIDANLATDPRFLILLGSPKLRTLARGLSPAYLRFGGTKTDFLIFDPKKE
Test: Dimerization assay (H53 hetero-dimer formation, di-methyl-methylene-blue)
Format: biochemical
Conditions: inhibition of H53 hetero-dimer formation by H8-derived peptides; read-out: IC50 H53
Description: Dimerization assay—Activation assay using di-methyl-methylene-blue was effected as described in U.S. Pat. No. 6,190,875.

Row | Compound | IC50 [µM]
61 | CPAYLRFGGTKTDFLIFDPLLE [Pep-7] | 7
